Columns and labels:
Experiment in all cases: relative viability (nuclei count vs DMSO), 5 days (fraction); higher = more cells survive
Dovitinib + Pictilisib = compound: CN1CCN(c2ccc3nc(-c4c(N)c5c(F)cccc5[nH]c4=O)[nH]c3c2)CC1 [Dovitinib] + CS(=O)(=O)N1CCN(Cc2cc3nc(-c4cccc5[nH]ncc45)nc(N4CCOCC4)c3s2)CC1 [Pictilisib] (partner 1 µM)
How it was run: (§1)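 Lung cancer cell lines, seeded in 1536-well plates, were treated the following day by pin tool with a single drug or with five library-drug doses (not always all listed) in √10 steps on top of a fixed anchor-drug dose. Cells were fixed and nuclei stained in one step after 5 days, and nuclei were counted. Relative viability is the nuclei count for treated wells divided by that for vehicle wells, reported as medians of duplicate plates.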

Dovitinib + Crizotinib = compound: CN1CCN(c2ccc3nc(-c4c(N)c5c(F)cccc5[nH]c4=O)[nH]c3c2)CC1 [Dovitinib] + C[C@@H](Oc1cc(-c2cnn(C3CCNCC3)c2)cnc1N)c1c(Cl)ccc(F)c1Cl [Crizotinib] (partner 1 µM)
How it was run: as §1

Dovitinib + Alpelisib = compound: CN1CCN(c2ccc3nc(-c4c(N)c5c(F)cccc5[nH]c4=O)[nH]c3c2)CC1 [Dovitinib] + Cc1nc(NC(=O)N2CCC[C@H]2C(N)=O)sc1-c1ccnc(C(C)(C)C(F)(F)F)c1 [Alpelisib] (partner 2 µM)
How it was run: as §1

Dovitinib + Lapatinib = compound: CN1CCN(c2ccc3nc(-c4c(N)c5c(F)cccc5[nH]c4=O)[nH]c3c2)CC1 [Dovitinib] + CS(=O)(=O)CCNCc1ccc(-c2ccc3ncnc(Nc4ccc(OCc5cccc(F)c5)c(Cl)c4)c3c2)o1 [Lapatinib] (partner 2 µM)
How it was run: as §1

Dovitinib + Bortezomib = compound: CN1CCN(c2ccc3nc(-c4c(N)c5c(F)cccc5[nH]c4=O)[nH]c3c2)CC1 [Dovitinib] + CC(C)C[C@H](NC(=O)[C@H](Cc1ccccc1)NC(=O)c1cnccn1)B(O)O [Bortezomib] (partner 0.002 µM)
How it was run: as §1

Dovitinib + Olaparib = compound: CN1CCN(c2ccc3nc(-c4c(N)c5c(F)cccc5[nH]c4=O)[nH]c3c2)CC1 [Dovitinib] + O=C(c1cc(Cc2n[nH]c(=O)c3ccccc23)ccc1F)N1CCN(C(=O)C2CC2)CC1 [Olaparib] (partner 8 µM)
How it was run: as §1

Dovitinib + Navitoclax = compound: CN1CCN(c2ccc3nc(-c4c(N)c5c(F)cccc5[nH]c4=O)[nH]c3c2)CC1 [Dovitinib] + CC1(C)CCC(c2ccc(Cl)cc2)=C(CN2CCN(c3ccc(C(=O)NS(=O)(=O)c4ccc(N[C@H](CCN5CCOCC5)CSc5ccccc5)c(S(=O)(=O)C(F)(F)F)c4)cc3)CC2)C1 [Navitoclax] (partner 0.5 µM)
How it was run: as §1

Dovitinib + Foretinib = compound: CN1CCN(c2ccc3nc(-c4c(N)c5c(F)cccc5[nH]c4=O)[nH]c3c2)CC1 [Dovitinib] + COc1cc2c(Oc3ccc(NC(=O)C4(C(=O)Nc5ccc(F)cc5)CC4)cc3F)ccnc2cc1OCCCN1CCOCC1 [Foretinib] (partner 0.25 µM)
How it was run: as §1

Dovitinib + Linsitinib = compound: CN1CCN(c2ccc3nc(-c4c(N)c5c(F)cccc5[nH]c4=O)[nH]c3c2)CC1 [Dovitinib] + C[C@]1(O)C[C@@H](c2nc(-c3ccc4ccc(-c5ccccc5)nc4c3)c3c(N)nccn32)C1 [Linsitinib] (partner 1 µM)
How it was run: as §1

Dovitinib = compound: CN1CCN(c2ccc3nc(-c4c(N)c5c(F)cccc5[nH]c4=O)[nH]c3c2)CC1 [Dovitinib]
How it was run: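 Lung cancer cell lines received five library-drug doses (not always all listed) spaced by √10, pinned on vehicle-anchored 1536-well plates after an overnight stay at 37 °C. Five days later, with no medium change, nuclei were Hoechst-stained, imaged at 4× and counted with MetaXpress. Viability is treated-well nuclei relative to vehicle-well nuclei, as a median across plates. Passing plates had control CV below 25% and at least one doubling.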

Dovitinib + Luminespib = compound: CN1CCN(c2ccc3nc(-c4c(N)c5c(F)cccc5[nH]c4=O)[nH]c3c2)CC1 [Dovitinib] + CCNC(=O)c1noc(-c2cc(C(C)C)c(O)cc2O)c1-c1ccc(CN2CCOCC2)cc1 [Luminespib] (partner 0.01 µM)
How it was run: as §1

Dovitinib + Dasatinib = compound: CN1CCN(c2ccc3nc(-c4c(N)c5c(F)cccc5[nH]c4=O)[nH]c3c2)CC1 [Dovitinib] + Cc1nc(Nc2ncc(C(=O)Nc3c(C)cccc3Cl)s2)cc(N2CCN(CCO)CC2)n1 [Dasatinib] (partner 0.075 µM)
How it was run: as §1

Dovitinib + Phenformin = compound: CN1CCN(c2ccc3nc(-c4c(N)c5c(F)cccc5[nH]c4=O)[nH]c3c2)CC1 [Dovitinib] + N=C(N)NC(=N)NCCc1ccccc1 [Phenformin] (partner 250 µM)
How it was run: as §1

Dovitinib + OSI-027 = compound: CN1CCN(c2ccc3nc(-c4c(N)c5c(F)cccc5[nH]c4=O)[nH]c3c2)CC1 [Dovitinib] + COc1cccc2cc(-c3nc([C@H]4CC[C@H](C(=O)O)CC4)n4ncnc(N)c34)[nH]c12 [OSI-027] (partner 0.5 µM)
How it was run: as §1

Dovitinib + Tozasertib = compound: CN1CCN(c2ccc3nc(-c4c(N)c5c(F)cccc5[nH]c4=O)[nH]c3c2)CC1 [Dovitinib] + Cc1cc(Nc2cc(N3CCN(C)CC3)nc(Sc3ccc(NC(=O)C4CC4)cc3)n2)n[nH]1 [Tozasertib] (partner 0.1 µM)
How it was run: as §1

NCI-H1299 gave a relative viability (Dovitinib + Pictilisib; first compound 0.02 µM) of 0.897, a relative viability (Dovitinib + Pictilisib; first compound 0.06325 µM) of 0.8 and a relative viability (Dovitinib + Pictilisib; first compound 0.2 µM) of 0.69. The relative viability (Dovitinib + Pictilisib; first compound 0.6325 µM) was 0.626, the relative viability (Dovitinib + Pictilisib; first compound 2 µM) was 0.789 and the relative viability (Dovitinib + Crizotinib; first compound 0.02 µM) was 0.941. It also gave a relative viability (Dovitinib + Crizotinib; first compound 0.06325 µM) of 0.968, a relative viability (Dovitinib + Crizotinib; first compound 0.2 µM) of 0.915 and a relative viability (Dovitinib + Crizotinib; first compound 0.6325 µM) of 0.942. The relative viability (Dovitinib + Crizotinib; first compound 2 µM) was 1.01, the relative viability (Dovitinib + Alpelisib; first compound 0.02 µM) was 0.984 and the relative viability (Dovitinib + Alpelisib; first compound 0.06325 µM) was 1.02. The relative viability (Dovitinib + Alpelisib; first compound 0.2 µM) was 1.02, the relative viability (Dovitinib + Alpelisib; first compound 0.6325 µM) was 1.04 and the relative viability (Dovitinib + Alpelisib; first compound 2 µM) was 1.09. It also gave a relative viability (Dovitinib + Lapatinib; first compound 0.02 µM) of 0.948, a relative viability (Dovitinib + Lapatinib; first compound 0.06325 µM) of 1 and a relative viability (Dovitinib + Lapatinib; first compound 0.2 µM) of 0.966. It also gave a relative viability (Dovitinib + Lapatinib; first compound 0.6325 µM) of 0.892, a relative viability (Dovitinib + Lapatinib; first compound 2 µM) of 0.966 and a relative viability (Dovitinib + Bortezomib; first compound 0.02 µM) of 0.977. For the same cell line, the relative viability (Dovitinib + Bortezomib; first compound 0.06325 µM) was 1.03, the relative viability (Dovitinib + Bortezomib; first compound 0.2 µM) was 1.06 and the relative viability (Dovitinib + Bortezomib; first compound 0.6325 µM) was 1.05. For the same cell line, the relative viability (Dovitinib + Bortezomib; first compound 2 µM) was 1.03, the relative viability (Dovitinib + Olaparib; first compound 0.02 µM) was 0.927 and the relative viability (Dovitinib + Olaparib; first compound 0.06325 µM) was 1.01. It also gave a relative viability (Dovitinib + Olaparib; first compound 0.2 µM) of 0.982, a relative viability (Dovitinib + Olaparib; first compound 0.6325 µM) of 0.946 and a relative viability (Dovitinib + Olaparib; first compound 2 µM) of 1.02. For the same cell line, the relative viability (Dovitinib + Navitoclax; first compound 0.02 µM) was 1.01, the relative viability (Dovitinib + Navitoclax; first compound 0.06325 µM) was 1.04 and the relative viability (Dovitinib + Navitoclax; first compound 0.2 µM) was 1.09. For the same cell line, the relative viability (Dovitinib + Navitoclax; first compound 0.6325 µM) was 1.05, the relative viability (Dovitinib + Navitoclax; first compound 2 µM) was 1.08 and the relative viability (Dovitinib + Foretinib; first compound 0.02 µM) was 1.11. The relative viability (Dovitinib + Foretinib; first compound 0.06325 µM) was 1.1, the relative viability (Dovitinib + Foretinib; first compound 0.2 µM) was 1.11 and the relative viability (Dovitinib + Foretinib; first compound 0.6325 µM) was 1.11. It also gave a relative viability (Dovitinib + Foretinib; first compound 2 µM) of 1.06, a relative viability (Dovitinib + Linsitinib; first compound 0.02 µM) of 0.913 and a relative viability (Dovitinib + Linsitinib; first compound 0.06325 µM) of 0.954. It also gave a relative viability (Dovitinib + Linsitinib; first compound 0.2 µM) of 0.959, a relative viability (Dovitinib + Linsitinib; first compound 0.6325 µM) of 0.951 and a relative viability (Dovitinib + Linsitinib; first compound 2 µM) of 0.976. For the same cell line, the relative viability (Dovitinib; 0.02 µM) was 0.966, the relative viability (Dovitinib; 0.06325 µM) was 1.03 and the relative viability (Dovitinib; 0.2 µM) was 1.03. For the same cell line, the relative viability (Dovitinib; 0.6325 µM) was 0.98 and the relative viability (Dovitinib; 2 µM) was 1.03.
In the case of NCI-H1623, the relative viability (Dovitinib + Luminespib; first compound 0.02 µM) is reported as 0.493, the relative viability (Dovitinib + Luminespib; first compound 0.06325 µM) is reported as 0.605 and the relative viability (Dovitinib + Luminespib; first compound 0.2 µM) is reported as 0.491. For the same cell line, the relative viability (Dovitinib + Luminespib; first compound 0.6325 µM) was 0.551, the relative viability (Dovitinib + Luminespib; first compound 2 µM) was 0.516 and the relative viability (Dovitinib + Dasatinib; first compound 0.02 µM) was 0.47. It also gave a relative viability (Dovitinib + Dasatinib; first compound 0.06325 µM) of 0.527, a relative viability (Dovitinib + Dasatinib; first compound 0.2 µM) of 0.615 and a relative viability (Dovitinib + Dasatinib; first compound 0.6325 µM) of 0.536. For the same cell line, the relative viability (Dovitinib + Dasatinib; first compound 2 µM) was 0.537, the relative viability (Dovitinib + Phenformin; first compound 0.02 µM) was 0.569 and the relative viability (Dovitinib + Phenformin; first compound 0.06325 µM) was 0.574. The relative viability (Dovitinib + Phenformin; first compound 0.2 µM) was 0.602, the relative viability (Dovitinib + Phenformin; first compound 0.6325 µM) was 0.617 and the relative viability (Dovitinib + Phenformin; first compound 2 µM) was 0.636. The relative viability (Dovitinib + OSI-027; first compound 0.02 µM) was 0.476, the relative viability (Dovitinib + OSI-027; first compound 0.06325 µM) was 0.436 and the relative viability (Dovitinib + OSI-027; first compound 0.2 µM) was 0.456. It also gave a relative viability (Dovitinib + OSI-027; first compound 0.6325 µM) of 0.384, a relative viability (Dovitinib + OSI-027; first compound 2 µM) of 0.384 and a relative viability (Dovitinib + Foretinib; first compound 0.02 µM) of 0.81. For the same cell line, the relative viability (Dovitinib + Foretinib; first compound 0.06325 µM) was 0.821, the relative viability (Dovitinib + Foretinib; first compound 0.2 µM) was 0.958 and the relative viability (Dovitinib + Foretinib; first compound 0.6325 µM) was 0.901. For the same cell line, the relative viability (Dovitinib + Foretinib; first compound 2 µM) was 0.893, the relative viability (Dovitinib + Tozasertib; first compound 0.02 µM) was 0.458 and the relative viability (Dovitinib + Tozasertib; first compound 0.06325 µM) was 0.427. For the same cell line, the relative viability (Dovitinib + Tozasertib; first compound 0.2 µM) was 0.495, the relative viability (Dovitinib + Tozasertib; first compound 0.6325 µM) was 0.445 and the relative viability (Dovitinib + Tozasertib; first compound 2 µM) was 0.423. The relative viability (Dovitinib; 0.02 µM) was 1.07, the relative viability (Dovitinib; 0.06325 µM) was 0.98 and the relative viability (Dovitinib; 0.2 µM) was 0.916. The relative viability (Dovitinib; 0.6325 µM) was 1 and the relative viability (Dovitinib; 2 µM) was 0.892.
